Columns and labels:
NCI-H226 cells = assay: Cell growth assay (CellTiter-Glo); format: cell-based, human; conditions: Homo sapiens, NCI-H226, 168 h, 7 days treatment, CellTiter-Glo luminescence, read-out: H226 CTG IC50
TEAD3 = TEAD3 (Homo sapiens, UniProt Q99594); assay: Thermal shift assay TEAD3; format: binding
How it was run: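 TEAD3 protein at 0.1 mg/ml final melted with Protein Thermal Shift dye on a qPCR instrument. Compounds tested at 10 μM and 1 μM in PBS, final DMSO 0.1%.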

TEAD2 = TEAD2 (Homo sapiens, UniProt Q15562); assay: Thermal shift assay TEAD2; format: binding
Chain of TEAD2 (Q15562 whole entry, species assumed): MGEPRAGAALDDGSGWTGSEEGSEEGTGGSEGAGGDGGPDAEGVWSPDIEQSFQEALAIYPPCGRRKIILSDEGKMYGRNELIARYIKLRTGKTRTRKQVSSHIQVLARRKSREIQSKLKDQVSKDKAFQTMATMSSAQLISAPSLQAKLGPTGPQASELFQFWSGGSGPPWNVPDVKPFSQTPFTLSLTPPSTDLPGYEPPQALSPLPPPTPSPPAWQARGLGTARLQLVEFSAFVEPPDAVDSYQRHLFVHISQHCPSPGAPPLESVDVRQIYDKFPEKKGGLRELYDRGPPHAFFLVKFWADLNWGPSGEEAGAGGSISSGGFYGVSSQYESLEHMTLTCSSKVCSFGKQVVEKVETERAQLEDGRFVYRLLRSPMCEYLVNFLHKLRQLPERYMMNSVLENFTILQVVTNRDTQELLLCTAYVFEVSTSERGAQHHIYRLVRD
How it was run: (§1)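 Compounds tested at 10 μM and 1 μM, 0.1% DMSO final, with TEAD1 at 0.2 mg/ml or TEAD2 at 0.08 mg/ml final. Melting monitored with Protein Thermal Shift dye on a qPCR instrument.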

TEAD1 = TEAD1 (Homo sapiens, UniProt P28347); assay: Thermal shift assay TEAD1; format: binding
Chain of TEAD1 (P28347 whole entry, species assumed): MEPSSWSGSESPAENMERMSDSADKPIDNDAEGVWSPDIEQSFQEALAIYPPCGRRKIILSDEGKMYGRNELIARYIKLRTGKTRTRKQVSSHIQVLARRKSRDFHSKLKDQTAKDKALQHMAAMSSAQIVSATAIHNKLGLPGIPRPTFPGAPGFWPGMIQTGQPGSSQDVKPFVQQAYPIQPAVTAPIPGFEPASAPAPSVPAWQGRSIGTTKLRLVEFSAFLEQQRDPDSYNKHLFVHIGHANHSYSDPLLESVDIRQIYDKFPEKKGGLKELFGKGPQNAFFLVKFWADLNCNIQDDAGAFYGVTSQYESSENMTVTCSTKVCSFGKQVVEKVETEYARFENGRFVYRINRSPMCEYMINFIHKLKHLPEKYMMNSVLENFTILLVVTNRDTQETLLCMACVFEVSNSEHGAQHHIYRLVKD
How it was run: as §1

TEAD4 = TEAD4 (Homo sapiens, UniProt Q15561); assay: Thermal shift assay TEAD4; format: binding
Chain of TEAD4 (Q15561 whole entry, species assumed): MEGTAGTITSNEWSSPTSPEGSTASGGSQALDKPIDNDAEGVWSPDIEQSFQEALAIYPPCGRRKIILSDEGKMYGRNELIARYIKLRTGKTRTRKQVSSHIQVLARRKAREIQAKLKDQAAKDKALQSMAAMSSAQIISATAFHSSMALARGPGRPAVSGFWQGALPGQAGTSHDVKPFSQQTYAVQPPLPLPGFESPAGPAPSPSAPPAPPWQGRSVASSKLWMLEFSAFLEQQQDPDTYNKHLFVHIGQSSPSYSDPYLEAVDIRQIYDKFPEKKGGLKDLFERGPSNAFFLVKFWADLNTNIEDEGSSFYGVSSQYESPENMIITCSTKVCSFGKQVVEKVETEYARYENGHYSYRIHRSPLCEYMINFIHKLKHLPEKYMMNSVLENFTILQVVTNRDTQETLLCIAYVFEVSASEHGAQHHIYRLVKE
How it was run: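 Protein thermal shift with TEAD4 at 0.1 mg/ml final, Protein Thermal Shift dye, compounds at 10 μM or 1 μM in PBS with 0.1% DMSO final. Melt reactions assembled on ice and run on a qPCR instrument.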

Chain of TEAD3 (Q99594 whole entry, species assumed): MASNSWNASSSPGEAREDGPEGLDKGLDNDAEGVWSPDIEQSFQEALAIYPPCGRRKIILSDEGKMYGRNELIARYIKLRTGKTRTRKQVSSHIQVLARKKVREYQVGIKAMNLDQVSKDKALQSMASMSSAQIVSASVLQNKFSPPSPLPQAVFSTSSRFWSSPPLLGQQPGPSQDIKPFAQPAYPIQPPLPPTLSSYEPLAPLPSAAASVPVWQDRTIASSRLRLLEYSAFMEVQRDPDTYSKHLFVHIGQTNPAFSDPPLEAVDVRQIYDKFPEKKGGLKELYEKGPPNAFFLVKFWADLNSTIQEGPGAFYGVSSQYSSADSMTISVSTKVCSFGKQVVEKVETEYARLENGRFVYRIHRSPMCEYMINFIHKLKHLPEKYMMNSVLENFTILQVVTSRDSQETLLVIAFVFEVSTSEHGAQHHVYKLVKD

Row | SMILES | IC50 (NCI-H226 cells) [nM] | TEAD3 ΔTm (TEAD3) [°C] | TEAD2 ΔTm (TEAD2) [°C] | TEAD1 ΔTm (TEAD1) [°C] | TEAD4 ΔTm (TEAD4) [°C]
1 | Cn1cc2cc(Oc3ccc(C(F)(F)F)cc3)cc([C@@H]3C[C@H]3C(=O)NC3(C#N)CC3)c2n1 (single isomer, unassigned) [Example 67] | < 100 | 1.7 | 9.9 | 8.8 | 7.9
2 | C[C@@H](C#N)NC(=O)[C@@H]1C[C@H]1c1cc(Oc2ccc(C(F)(F)F)cc2)cc2cn(C)nc12 (single isomer, unassigned) [Example 69] | < 100 | 11.6 | 13.9 | 10.9 | 12.9
3 | Cn1cc2cc(Oc3ccc(C(F)(F)F)cc3)cc([C@@H]3C[C@H]3C(=O)N3CC(C#N)C3)c2n1 (single isomer, unassigned) [Example 70] | < 100 | 7.0 | 11.7 | 8.4 | 8.6
4 | Cn1cc2cc(Oc3ccc(C(F)(F)F)cc3)cc([C@@H]3C[C@H]3C(=O)NC#N)c2n1 (single isomer, unassigned) [Example 71] | 1000 to 30000 | 12.2 | 13.4 | 11.2 | 12.2
5 | Cn1cc2cc(Oc3ccc(C(F)(F)F)cc3)cc(C3C[C@H]3C(=O)N3CCC[C@@H]3C#N)c2n1 (single isomer, unassigned) [Example 72] | < 100 | 1.7 | 8.6 | 3.5 | 4.7
6 | Cn1cc2cc(Oc3ccc(C(F)(F)F)cc3)cc(C3C[C@H]3C(=O)N3CCC[C@H]3C#N)c2n1 (single isomer, unassigned) [Example 73] | < 100 | 13.9 | 15.1 | 9.5 | 12.1
7 | Cn1cc2cc(Oc3ccc(C(F)(F)F)cc3)cc(C3C[C@H]3C(=O)N3CCC(O)CC3)c2n1 (single isomer, unassigned) [Example 74] | < 100 | 11.4 | 12.9 | 10.7 | 10.2
8 | Cn1cc2cc(Oc3ccc(C(F)(F)F)cc3)cc([C@@H]3C[C@H]3C(=O)N3CC[C@@H](O)[C@H](O)C3)c2n1 (single isomer, unassigned) [Example 75b] | < 100 | 10.1 | 11.9 | 9.3 | 11.6
9 | Cn1cc2cc(N3CCC4(CCCC4)CC3)cc(C3C[C@H]3C(=O)N3C[C@H](O)[C@@H](O)C3)c2n1 (single isomer, unassigned) [Example 86] | 1000 to 30000 | 0.2 | 2.7 | 2.6 | 2.6
10 | Cn1cc2cc(Oc3ccc(C(F)(F)F)cc3)cc(C3C[C@H]3C(=O)NC3CC4(CC(O)C4)C3)c2n1 (single isomer, unassigned) [Example 95] | < 100 | 6.4 | 10.6 | 9.4 | 9.4
11 | Cn1cc2cc(Oc3ccc(C(F)(F)F)cc3)cc(C3C[C@H]3C(=O)N3C4COCC3C4)c2n1 (single isomer, unassigned) [Example 96] | < 100 | 12.3 | 13.1 | 10.5 | 12.6
12 | Cn1cc2cc(Oc3ccc(C(F)(F)F)cc3)cc(C3C[C@H]3C(=O)N3CC4(CC(O)C4)C3)c2n1 (single isomer, unassigned) [Example 97] | < 100 | 7.6 | 9.0 | 9.9 | 10.2
13 | Cn1cc2cc(Oc3ccc(C(F)(F)F)cc3)cc(C3C[C@H]3C(=O)N3CCC4(COC4)C3)c2n1 (single isomer, unassigned) [Example 98] | 100 to 500 | 0 | 9.2 | 7.3 | 8.4
14 | Cn1cc2cc(Oc3ccc(C(F)(F)F)cc3)cc(C3C[C@H]3C(=O)NC34CC(O)(C3)C4)c2n1 (single isomer, unassigned) [Example 102] | < 100 | 2.1 | 9.1 | 7.3 | 8.7
15 | Cn1cc2cc(Oc3ccc(C(F)(F)F)cc3)cc(C3C[C@H]3C(=O)N3[C@@H]4CC[C@H]3C[C@@H](O)C4)c2n1 (single isomer, unassigned) [Example 104] | < 100 | 2.0 | 9.0 | 6.5 | 8.1
16 | Cn1cc2cc(Oc3ccc(C(F)(F)F)cc3)cc(C3C[C@H]3C(=O)N3[C@@H]4CC[C@H]3C[C@H](O)C4)c2n1 (single isomer, unassigned) [Example 105] | < 100 | 2.2 | 8.2 | 6.8 | 8.1
17 | Cn1cc2cc(Oc3ccc(C(F)(F)F)cc3)cc([C@@H]3C[C@H]3C(=O)N3CC4CC3C(=O)N4)c2n1 (single isomer, unassigned) [Example 121] | < 100 | 2.0 | 10.6 | 7.9 | 8.9
18 | Cn1cc2cc(Oc3ccc(C(F)(F)F)cc3)cc([C@@H]3C[C@H]3C(=O)N3CC4CC(C3)N4)c2n1 (single isomer, unassigned) [Example 123] | < 100 | 1.8 | 9.1 | 7.7 | 9.2

The remaining lines, values ahead:

Row | IC50 (NCI-H226 cells) [nM] | TEAD3 ΔTm (TEAD3) [°C] | TEAD2 ΔTm (TEAD2) [°C] | TEAD1 ΔTm (TEAD1) [°C] | TEAD4 ΔTm (TEAD4) [°C] | SMILES
19 | < 100 | 1.8 | 7.1 | 7.4 | 4.4 | Cc1cn2cc(Oc3ccc(C(F)(F)F)cc3)cc([C@H]3C[C@@H]3C(=O)N3CC(O)C3)c2n1 (single isomer, unassigned) [Example 85b]
20 | < 100 | 2.6 | 10.9 | 7.6 | 9.7 | Cn1cc2cc(Oc3ccc(C(F)(F)F)cn3)cc([C@H]3C[C@@H]3C(=O)N3CC(O)C3)c2n1 (single isomer, unassigned) [Example 88b]
21 | < 100 | 8.8 | 12.4 | 8.6 | 11.4 | Cn1cc2cc(Oc3ccc(C(F)F)cc3)cc([C@H]3C[C@@H]3C(=O)N3CC(O)C3)c2n1 (single isomer, unassigned) [Example 89b]
22 | < 100 | 2.9 | 10.5 | 7.7 | 10.3 | Cn1cc2cc(Oc3ccc(F)c(F)c3)cc([C@H]3C[C@@H]3C(=O)N3CC(O)C3)c2n1 (single isomer, unassigned) [Example 90b]
23 | < 100 | 3.0 | 9.9 | 6.4 | 9.0 | Cn1cc2cc(Oc3ccc(C(F)(F)F)cc3)cc([C@@H]3C[C@H]3C(=O)N3CC4CC3CC4O)c2n1 (single isomer, unassigned) [Example 103a]
24 | < 100 | 10.4 | 12.0 | 9.2 | 11.8 | Cn1cc2cc(Oc3ccc(C(F)(F)F)cc3)cc([C@H]3C[C@@H]3C(=O)N3CC4CC3CC4O)c2n1 (single isomer, unassigned) [Example 103b]
25 | < 100 | 9.4 | 11.1 | 9.2 | 10.7 | Cn1cc2cc(Oc3ccc(C(F)(F)F)cc3)cc(C3C[C@H]3C(=O)N3C[C@H]4C[C@@H]3C[C@@H]4O)c2n1 (single isomer, unassigned) [Example 103c]
26 | < 100 | 10.3 | 11.6 | 9.5 | 11.2 | Cn1cc2cc(Oc3ccc(C(F)(F)F)cc3)cc(C3C[C@H]3C(=O)N3C[C@@H]4C[C@H]3C[C@H]4O)c2n1 (single isomer, unassigned) [Example 103d]
27 | < 100 | 1.8 | 9.1 | 6.9 | 8.7 | Cn1cc2cc(Oc3ccc(C(F)(F)F)cc3)cc(C3C[C@H]3C(=O)N3C[C@H]4C[C@@H]3C[C@H]4O)c2n1 (single isomer, unassigned) [Example 103e]
28 | < 100 | 8.8 | 9.1 | 7.9 | 8.3 | Cn1cc2nc(Oc3ccc(C(F)(F)F)cc3)cc([C@H]3C[C@@H]3C(=O)N3CC(O)C3)c2n1 (single isomer, unassigned) [Example 108b]
29 | < 100 | 1.9 | 10.2 | 8.4 | 10.1 | CO[C@@H]1CN(C(=O)[C@@H]2C[C@H]2c2cc(Oc3ccc(C(F)(F)F)cc3)cc3cn(C)nc23)C[C@H]1O (single isomer, unassigned) [Example 112b]

Reference: patent US12103915B2, “TEAD inhibitors and methods of uses thereof” (Insilico Medicine IP Limited, priority 2022, dated 2024)
